Experimental data published in patent US8697739B2, “Bicyclic acetyl-CoA carboxylase inhibitors and uses thereof” (Novartis AG, priority 2010, dated 2014).
Blank lines part the entries; values can stand above or below the compound they belong to.

Target: T1, human acetyl-CoA carboxylase 2 (ACC2) (Homo sapiens, UniProt O00763)
T1 construct: The cDNA encoding amino acids 144 to 2458 of human acetyl-CoA carboxylase 2; made in house; host or cells: Sf9 insect cells (baculovirus, pFastBac1)
Assay: Acetyl-CoA carboxylase enzyme assay (malonyl-CoA formation by LC/MS/MS)
Assay type: biochemical
Details: recombinant human ACC2 (aa 144-2458); read-out: IC50 ACC2
Outline: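 Malonyl-CoA formation was read by LC/MS/MS MRM against a [13C3]-malonyl-CoA internal standard, after acetic acid quench. The enzyme was baculovirus/Sf9-expressed human ACC2 residues 144–2458, given 15 minutes room-temperature compound preincubation in HEPES pH 7.5 buffer with MgCl2, citrate and DTT. Substrate solution held 50 μM acetyl-CoA, 120 μM ATP and 2 mM KHCO3.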

T1 sequence (O00763 144-2458): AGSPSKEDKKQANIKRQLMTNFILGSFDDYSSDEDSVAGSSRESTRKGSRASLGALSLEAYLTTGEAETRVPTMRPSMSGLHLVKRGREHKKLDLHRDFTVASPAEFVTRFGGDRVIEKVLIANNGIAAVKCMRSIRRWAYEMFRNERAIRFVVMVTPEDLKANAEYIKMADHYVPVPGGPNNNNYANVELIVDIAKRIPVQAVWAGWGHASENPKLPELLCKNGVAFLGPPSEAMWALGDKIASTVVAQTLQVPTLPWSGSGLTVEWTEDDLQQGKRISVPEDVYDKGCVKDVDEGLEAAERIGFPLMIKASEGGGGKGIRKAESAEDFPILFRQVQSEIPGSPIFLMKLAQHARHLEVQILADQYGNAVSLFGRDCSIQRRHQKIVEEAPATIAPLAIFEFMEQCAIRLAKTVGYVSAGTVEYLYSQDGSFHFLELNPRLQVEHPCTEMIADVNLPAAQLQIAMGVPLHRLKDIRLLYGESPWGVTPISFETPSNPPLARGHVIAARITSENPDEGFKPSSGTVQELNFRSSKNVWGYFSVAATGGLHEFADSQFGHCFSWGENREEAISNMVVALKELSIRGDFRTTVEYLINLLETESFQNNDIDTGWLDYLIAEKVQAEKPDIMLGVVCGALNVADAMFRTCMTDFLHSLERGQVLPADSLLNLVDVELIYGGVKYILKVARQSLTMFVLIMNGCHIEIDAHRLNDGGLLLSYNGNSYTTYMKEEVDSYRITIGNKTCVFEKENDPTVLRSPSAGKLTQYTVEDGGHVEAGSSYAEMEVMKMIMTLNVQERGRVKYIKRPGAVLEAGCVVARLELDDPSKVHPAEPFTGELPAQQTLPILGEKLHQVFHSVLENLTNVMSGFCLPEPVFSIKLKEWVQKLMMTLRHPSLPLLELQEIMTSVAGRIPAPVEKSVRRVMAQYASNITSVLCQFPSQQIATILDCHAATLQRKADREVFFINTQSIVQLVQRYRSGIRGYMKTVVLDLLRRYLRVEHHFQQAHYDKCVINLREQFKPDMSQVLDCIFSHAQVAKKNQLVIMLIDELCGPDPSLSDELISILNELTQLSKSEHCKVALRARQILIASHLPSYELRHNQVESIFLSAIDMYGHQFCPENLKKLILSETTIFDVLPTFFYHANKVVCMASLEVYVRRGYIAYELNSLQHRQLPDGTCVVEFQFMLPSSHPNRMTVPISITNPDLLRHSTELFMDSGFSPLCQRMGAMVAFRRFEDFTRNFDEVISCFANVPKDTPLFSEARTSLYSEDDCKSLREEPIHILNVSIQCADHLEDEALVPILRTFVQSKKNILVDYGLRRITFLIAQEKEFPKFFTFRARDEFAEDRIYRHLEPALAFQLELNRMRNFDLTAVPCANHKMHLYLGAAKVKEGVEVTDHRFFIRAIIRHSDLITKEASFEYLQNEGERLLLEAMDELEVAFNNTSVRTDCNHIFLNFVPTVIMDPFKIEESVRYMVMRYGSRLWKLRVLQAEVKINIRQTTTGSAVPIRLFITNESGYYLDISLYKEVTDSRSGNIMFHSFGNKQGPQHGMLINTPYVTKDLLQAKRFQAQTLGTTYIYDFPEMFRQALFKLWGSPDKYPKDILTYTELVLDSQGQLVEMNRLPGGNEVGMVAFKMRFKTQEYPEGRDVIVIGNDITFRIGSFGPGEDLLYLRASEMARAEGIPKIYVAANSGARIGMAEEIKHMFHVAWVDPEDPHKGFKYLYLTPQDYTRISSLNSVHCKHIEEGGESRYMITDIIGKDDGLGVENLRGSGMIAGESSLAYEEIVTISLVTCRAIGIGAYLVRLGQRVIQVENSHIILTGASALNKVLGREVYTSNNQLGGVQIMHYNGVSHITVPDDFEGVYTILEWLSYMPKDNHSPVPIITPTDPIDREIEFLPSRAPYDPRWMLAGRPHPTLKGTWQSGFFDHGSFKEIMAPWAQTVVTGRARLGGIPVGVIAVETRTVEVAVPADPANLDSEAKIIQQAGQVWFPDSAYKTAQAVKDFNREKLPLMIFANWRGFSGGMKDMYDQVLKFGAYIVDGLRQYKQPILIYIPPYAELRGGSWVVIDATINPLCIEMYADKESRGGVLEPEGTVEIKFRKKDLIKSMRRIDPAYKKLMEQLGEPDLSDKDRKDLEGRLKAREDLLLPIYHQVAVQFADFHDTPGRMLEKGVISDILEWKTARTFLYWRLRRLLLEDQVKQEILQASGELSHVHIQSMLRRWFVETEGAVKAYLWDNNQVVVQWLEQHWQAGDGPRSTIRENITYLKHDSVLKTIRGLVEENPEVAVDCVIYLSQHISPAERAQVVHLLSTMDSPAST

Compound: O=C([C@H]1CC[C@H](NS(=O)(=O)c2ccc3c(c2)CCC3)CC1)N1CCNC[C@@H]1c1ccccc1 [Example 245, N-((1S,4r)-4-((S)-2-phenylpiperazine-1-carbonyl)cyclohexyl)-2,3-dihydro-1H-indene-5-sulfonamide]
- IC50: 0.035 µM

Compound: CCOc1ccc2cc(S(=O)(=O)N[C@H]3CC[C@H](C(=O)N4CCNC[C@@H]4C(=O)O)CC3)ccc2n1 [Example 246, (R)-1-((1r,4R)-4-(2-ethoxyquinoline-6-sulfonamido)cyclohexanecarbonyl)piperazine-2-carboxylic acid]
- IC50: > 35 µM

Compound: C[C@@H](NC(=O)[C@H]1CC[C@H](NS(=O)(=O)c2ccc3nc(N4CCNC(C(F)(F)F)C4)ccc3c2)CC1)c1ccc(F)cc1 (stereo partly drawn) [Example 248, (1r,4R)-N-((R)-1-(4-fluorophenyl)ethyl)-4-(2-(3-(trifluoromethyl)piperazin-1-yl)quinoline-6-sulfonamido)cyclohexanecarboxamide]
- IC50: 0.21 µM

Compound: C[C@@H](NC(=O)[C@H]1CC[C@H](NS(=O)(=O)c2ccc3c(c2)N(C)[C@H](C(=O)O)CC3)CC1)c1ccc(F)cc1 [Example 250, (S)-7-(N-((1R,4S)-4-((R)-1-(4-fluorophenyl)ethylcarbamoyl)cyclohexyl)sulfamoyl)-1-methyl-1,2,3,4-tetrahydroquinoline-2-carboxylic acid]
- IC50: 0.595 µM

Compound: C[C@@H](NC(=O)[C@H]1CC[C@H](NS(=O)(=O)c2ccc3c(c2)N(C)[C@@H](C(=O)O)CC3)CC1)c1ccc(F)cc1 [Example 251, (R)-7-(N-((1R,4R)-4-((R)-1-(4-fluorophenyl)ethylcarbamoyl)cyclohexyl)sulfamoyl)-1-methyl-1,2,3,4-tetrahydroquinoline-2-carboxylic acid]
- IC50: 0.035 µM

Compound: COC(=O)[C@H]1CC[C@H](NS(=O)(=O)c2ccc3nc(-c4cc(C)nc(C)c4)ccc3c2)CC1 [Example 252, (1r,4r)-methyl 4-(2-(2,6-dimethylpyridin-4-yl)quinoline-6-sulfonamido)cyclohexanecarboxylate]
- IC50: > 35 µM

Compound: Cc1cc(-c2ccc3cc(S(=O)(=O)N[C@H]4CC[C@H](C(=O)N5CCNC[C@H]5c5ccccc5)CC4)ccc3n2)cc(C)n1 [Example 257, 2-(2,6-dimethylpyridin-4-yl)-N-((1R,4r)-4-((R)-2-phenylpiperazine-1-carbonyl)cyclohexyl)quinoline-6-sulfonamide]
- IC50: 0.05 µM

Compound: CN1CCN(c2ccc3cc(S(=O)(=O)N[C@H]4CC[C@H](C(=O)N[C@H](c5ccccc5)C(C)(C)O)CC4)ccc3n2)CC1 [Example 258, (1r,4R)-N-((R)-2-hydroxy-2-methyl-1-phenylpropyl)-4-(2-(4-methylpiperazin-1-yl)quinoline-6-sulfonamido)cyclohexanecarboxamide]
- IC50: 0.08 µM

Compound: CN1CCN(c2ccc3cc(S(=O)(=O)NC4CCC(C(=O)N5CCNCC5c5ccccc5)CC4)ccc3n2)CC1 (centres unmarked) [Example 259, 2-(4-methylpiperazin-1-yl)-N-((1r,4r)-4-(2-phenylpiperazine-1-carbonyl)cyclohexyl)quinoline-6-sulfonamide]
- IC50: 0.45 µM

Compound: CC(C)[C@H]1COCCN1C(=O)[C@H]1CC[C@H](NS(=O)(=O)c2ccc3nc(N4CCN(C)CC4)ccc3c2)CC1 [Example 260, N-((1S,4r)-4-((S)-3-isopropylmorpholine-4-carbonyl)cyclohexyl)-2-(4-methylpiperazin-1-yl)quinoline-6-sulfonamide]
- IC50: 2.96 µM

Compound: Cc1cc(-c2ccc3cc(S(=O)(=O)N[C@H]4CC[C@H](C(=O)N5CCOC[C@@H]5C(C)C)CC4)ccc3n2)cc(C)n1 [Example 261, 2-(2,6-dimethylpyridin-4-yl)-N-((1S,4r)-4-((S)-3-isopropylmorpholine-4-carbonyl)cyclohexyl)quinoline-6-sulfonamide]
- IC50: 0.46 µM

Compound: COC(=O)C12CC3CC(C1)C(NS(=O)(=O)c1ccc4oc5ccccc5c4c1)C(C3)C2 (centres unmarked) [Example 265, 4-(Dibenzofuran-2-sulfonylamino)-adamantane-1-carboxylic acid methyl ester]
- IC50: 0.685 µM

Compound: CCOc1ccc2cc(S(=O)(=O)N[C@H]3CC[C@H](C(=O)N[C@H](COC(=O)[C@@H](N)C(C)C)c4ccccc4)CC3)ccc2n1 [Example 266, (S)-((S)-2-((1r,4S)-4-(2-ethoxyquinoline-6-sulfonamido)cyclohexanecarboxamido)-2-phenylethyl) 2-amino-3-methylbutanoate]
- IC50: 0.14 µM

Compound: COC(=O)[C@H]1CC[C@H](CNS(=O)(=O)c2ccc3oc4ccccc4c3c2)CC1 [Example 267, (1r,4r)-methyl 4-((dibenzo[b,d]furan-2-sulfonamido)methyl)cyclohexanecarboxylate]
- IC50: > 35 µM

Compound: CCOc1ccc2cc(S(=O)(=O)N[C@H]3CC[C@H](C(=O)N[C@H](COP(=O)(OC(C)(C)C)OC(C)(C)C)c4ccccc4)CC3)ccc2n1 [Example 268, di-tert-butyl (S)-2-((1r,4S)-4-(2-ethoxyquinoline-6-sulfonamido)cyclohexanecarboxamido)-2-phenylethyl phosphate]
- IC50: 0.435 µM

Compound: CCOc1ccc2cc(S(=O)(=O)N[C@H]3CC[C@H](C(=O)N[C@H](COP(=O)(O)O)c4ccccc4)CC3)ccc2n1 [Example 269, (S)-2-((1r,4S)-4-(2-ethoxyquinoline-6-sulfonamido)cyclohexanecarboxamido)-2-phenylethyl dihydrogen phosphate]
- IC50: 25.2 µM

Compound: C[C@@H](NC(=O)C12CCC(NS(=O)(=O)c3cnc4c(c3)NCCN4)(CC1)CC2)c1ccc(F)cc1 [Example 270, (R)-N-(1-(4-fluorophenyl)ethyl)-4-(1,2,3,4-tetrahydropyrido[3,2-b]pyrazine-7-sulfonamido)bicyclo[2.2.2]octane-1-carboxamide]
- IC50: 0.165 µM

Compound: CCOc1ccc2cc(S(=O)(=O)NC3CCC(C(=O)NC(c4ccccc4)C(C)OC(=O)C(N)C(C)C)CC3)ccc2n1 [Example 271, (S)-((1S,2S)-1-((1r,4S)-1-((1r,4S)-4-(2-ethoxyquinoline-6-sulfonamido)cyclohexanecarboxamido)-1-phenylpropan-2-yl) 2-amino-3-methylbutanoate]
- IC50: 0.195 µM

Now those with a lower IC50, led by results:

- IC50: 0.015 µM
Compound: C[C@@H](NC(=O)[C@H]1CC[C@H](NS(=O)(=O)c2ccc3oc4ccccc4c3c2)CC1)c1ccc(F)cc1 [Example 243, (1r,4R)-4-(dibenzo[b,d]furan-2-sulfonamido)-N-((R)-1-(4-fluorophenyl)ethyl)cyclohexanecarboxamide]

- IC50: < 0.01 µM
Compound: O=C([C@H]1CC[C@H](NS(=O)(=O)c2ccc3c(c2)Cc2ccccc2-3)CC1)N1CCNC[C@@H]1c1ccccc1 [Example 244, N-((1S,4r)-4-((S)-2-phenylpiperazine-1-carbonyl)cyclohexyl)-9H-fluorene-2-sulfonamide]

- IC50: 0.03 µM
Compound: C[C@@H](NC(=O)[C@H]1CC[C@H](NS(=O)(=O)c2ccc3nc(C#CCN4CCNCC4)ccc3c2)CC1)c1ccc(F)cc1 [Example 247, (1r,4R)-N-((R)-1-(4-fluorophenyl)ethyl)-4-(2-(3-(piperazin-1-yl)prop-1-ynyl)quinoline-6-sulfonamido)cyclohexanecarboxamide]

- IC50: 0.01 µM
Compound: C[C@@H](NC(=O)[C@H]1CC[C@H](NS(=O)(=O)c2ccc3nc(-c4cccc(C(=O)O)c4)ccc3c2)CC1)c1ccc(F)cc1 [Example 249, 3-(6-(N-((1R,4r)-4-((R)-1-(4-fluorophenyl)ethylcarbamoyl)cyclohexyl)sulfamoyl)quinolin-2-yl)benzoic acid]

- IC50: 0.02 µM
Compound: Cc1cc(-c2ccc3cc(S(=O)(=O)N[C@H]4CC[C@H](C(=O)NC(c5ccccc5)C(C)(C)O)CC4)ccc3n2)cc(C)n1 (some centres unmarked) [Example 253, (1r,4r)-4-(2-(2,6-dimethylpyridin-4-yl)quinoline-6-sulfonamido)-N-(2-hydroxy-2-methyl-1-phenylpropyl)cyclohexanecarboxamide]

- IC50: 0.02 µM
Compound: Cc1cc(-c2ccc3cc(S(=O)(=O)N[C@H]4CC[C@H](C(=O)N5CCNCC5c5ccccc5)CC4)ccc3n2)cc(C)n1 (some centres unmarked) [Example 254, 2-(2,6-dimethylpyridin-4-yl)-N-((1r,4r)-4-(2-phenylpiperazine-1-carbonyl)cyclohexyl)quinoline-6-sulfonamide]

- IC50: 0.015 µM
Compound: CC(C)(C)OC(=O)N1CCN(C(=O)[C@H]2CC[C@H](NS(=O)(=O)c3ccc4oc5ccccc5c4c3)CC2)[C@@H](c2ccccc2)C1 [Example 255, (S)-tert-butyl 4-((1r,4S)-4-(dibenzo[b,d]furan-2-sulfonamido)cyclohexanecarbonyl)-3-phenylpiperazine-1-carboxylate]

- IC50: 0.02 µM
Compound: O=C([C@H]1CC[C@H](NS(=O)(=O)c2ccc3oc4ccccc4c3c2)CC1)N1CCNC[C@@H]1c1ccccc1 [Example 256, N-((1S,4r)-4-((S)-2-phenylpiperazine-1-carbonyl)cyclohexyl)dibenzo[b,d]furan-2-sulfonamide]

- IC50: 0.02 µM
Compound: C[C@@H](NC(=O)C12CC3CC(C1)C(NS(=O)(=O)c1cnc4c(c1)NCCN4)C(C3)C2)c1ccc(F)cc1 (stereo partly drawn) [Example 262, 4-(1,2,3,4-Tetrahydro-pyrido[2,3-b]pyrazine-7-sulfonylamino)-adamantane-1-carboxylic acid [(R)-1-(4-fluoro-phenyl)-ethyl]-amide]

- IC50: 0.03 µM
Compound: CC(C)(C)OC(=O)N1CCN(C(=O)[C@H]2CC[C@H](NS(=O)(=O)c3ccc4c(c3)oc3ccccc34)CC2)[C@@H](c2ccccc2)C1 [Example 263, (S)-tert-butyl 4-((1r,4S)-4-(dibenzo[b,d]furan-3-sulfonamido)cyclohexanecarbonyl)-3-phenylpiperazine-1-carboxylate]

- IC50: 0.02 µM
Compound: O=C([C@H]1CC[C@H](NS(=O)(=O)c2ccc3c(c2)oc2ccccc23)CC1)N1CCNC[C@@H]1c1ccccc1 [Example 264, N-((1S,4r)-4-((S)-2-phenylpiperazine-1-carbonyl)cyclohexyl)dibenzo[b,d]furan-3-sulfonamide]
